Laboratory results reported in the CheMixHub viscosity set.

Assay: xn = mol fraction of the nth substance listed

CC(CC(C)(C)C)CP(=O)(O)CC(C)CC(C)(C)C (stereo unspecified) + ClC(Cl)Cl
298.15 K, 101 kPa
Details | viscosity [mPa·s]
x1 = 0.0053 | 0.568
x1 = 0.0095 | 0.615
x1 = 0.011 | 0.638
x2 = 0.1271 | 90.02
x2 = 0.2117 | 75.09
x2 = 0.3912 | 50.44
x2 = 0.5499 | 30.02
x2 = 0.7028 | 11.91
x2 = 0.7739 | 6.921
x2 = 0.8002 | 5.613
x2 = 0.8091 | 5.202
x2 = 0.8378 | 3.942
x2 = 0.8852 | 2.458
x2 = 0.8924 | 2.301
x2 = 0.9394 | 1.35
x2 = 0.9426 | 1.28
x2 = 0.9762 | 0.818

CC(C)CCO + ClCCCl
viscosity [mPa·s], 101 kPa
Details | x1 = 0.1272 | x1 = 0.2201 | x1 = 0.3264 | x1 = 0.4302 | x1 = 0.5765 | x1 = 0.6639 | x1 = 0.8049 | x1 = 0.888
303.15 K | 0.743 | 0.797 | 0.9054 | 1.029 | 1.302 | 1.532 | 2.081 | 2.51
313.15 K | 0.6478 | 0.6865 | 0.7649 | 0.8579 | 1.065 | 1.23 | 1.619 | 1.91
323.15 K | 0.5786 | 0.603 | 0.665 | 0.7365 | 0.8917 | 1.015 | 1.309 | 1.507

CC(CC(C)(C)C)CP(=O)(O)CC(C)CC(C)(C)C (stereo unspecified) + ClCCCl
298.15 K, 101 kPa
Details | viscosity [mPa·s]
x1 = 0.0052 | 0.825
x1 = 0.0094 | 0.891
x1 = 0.0107 | 0.931
x2 = 0.0747 | 93.3
x2 = 0.1457 | 79.06
x2 = 0.2376 | 61.57
x2 = 0.3715 | 42.12
x2 = 0.568 | 20.09
x2 = 0.7166 | 9.021
x2 = 0.8017 | 5.212
x2 = 0.8105 | 4.99
x2 = 0.8887 | 2.678
x2 = 0.8942 | 2.603
x2 = 0.9417 | 1.597
x2 = 0.9439 | 1.578
x2 = 0.9767 | 1.087

CCOCCO + NC1CCCCC1
308.15 K, 101 kPa
Details | viscosity [mPa·s]
x1 = 0.1163 | 1.345
x1 = 0.2284 | 1.366
x1 = 0.3366 | 1.391
x1 = 0.4411 | 1.419
x1 = 0.5421 | 1.437
x1 = 0.6398 | 1.457
x1 = 0.7342 | 1.459
x1 = 0.8257 | 1.455
x1 = 0.9142 | 1.45

CC(C)CCO + NC=O
298.1 K, 101 kPa
Details | viscosity [mPa·s]
x2 = 0.0932 | 3.579
x2 = 0.1809 | 3.571
x2 = 0.2579 | 3.687
x2 = 0.3292 | 3.799
x2 = 0.4564 | 3.993
x2 = 0.5661 | 4.174
x2 = 0.6617 | 4.273
x2 = 0.7463 | 4.252
x2 = 0.8205 | 4.071
x2 = 0.8871 | 3.8
x2 = 0.9462 | 3.567

CCOCCO + NC=O
101 kPa
Details | viscosity [mPa·s]
303 K, x2 = 0.1539 | 2.222
303 K, x2 = 0.3334 | 2.676
303 K, x2 = 0.4617 | 2.99
303 K, x2 = 0.5714 | 3.203
303 K, x2 = 0.6669 | 3.477
303 K, x2 = 0.7501 | 3.576
303 K, x2 = 0.8235 | 3.446
303 K, x2 = 0.8889 | 3.199
303 K, x2 = 0.9474 | 3.008
303.15 K, x2 = 0.8063 | 3.495
313 K, x2 = 0.1539 | 1.769
313 K, x2 = 0.3334 | 2.075
313 K, x2 = 0.4617 | 2.139
313 K, x2 = 0.5714 | 2.481
313 K, x2 = 0.6669 | 2.647
313 K, x2 = 0.7501 | 2.752
313 K, x2 = 0.8235 | 2.588
313 K, x2 = 0.8889 | 2.513
323.15 K, x2 = 0.2009 | 1.415

CCOCCO + NCCO
viscosity [mPa·s], 101 kPa
Details | 293.15 K | 298.15 K | 303.15 K | 308.15 K | 313.15 K | 318.15 K | 323.15 K
x2 = 0.141 | 2.898 | 2.544 | 2.246 | 1.998 | 1.786 | 1.605 | 1.449
x2 = 0.387 | 5.417 | 4.594 | 3.935 | 3.401 | 2.963 | 2.6 | 2.297
x2 = 0.596 | 9.217 | 7.588 | 6.312 | 5.319 | 4.527 | 3.89 | 3.371
x2 = 0.775 | 14.17 | 11.37 | 9.259 | 7.642 | 6.388 | 5.402 | 4.614
x2 = 0.93 | 20.26 | 15.94 | 12.77 | 10.37 | 8.539 | 7.122 | 6.005

Cc1cccc(Cl)c1 + Nc1cccc(Cl)c1
viscosity [mPa·s], 100 kPa
Details | x2 = 0.0705 | x2 = 0.1546 | x2 = 0.2565 | x2 = 0.3413 | x2 = 0.4391 | x2 = 0.5101 | x2 = 0.6494 | x2 = 0.7592 | x2 = 0.8887
303.15 K | 0.9978 | 1.301 | 1.665 | 1.967 | 2.313 | 2.563 | 3.05 | 3.431 | 3.876
308.15 K | 0.9306 | 1.202 | 1.529 | 1.8 | 2.11 | 2.333 | 2.769 | 3.109 | 3.505
313.15 K | 0.8678 | 1.109 | 1.398 | 1.636 | 1.909 | 2.106 | 2.489 | 2.788 | 3.137
318.15 K | 0.8037 | 1.014 | 1.265 | 1.473 | 1.71 | 1.88 | 2.212 | 2.471 | 2.771

CCOCCO + Nc1ccccc1
303.15 K, 101 kPa
Details | viscosity [mPa·s]
x2 = 0.1062 | 2.266
x2 = 0.2109 | 2.394
x2 = 0.3142 | 2.523
x2 = 0.4162 | 2.74
x2 = 0.5167 | 2.94
x2 = 0.616 | 3.114
x2 = 0.7139 | 3.277
x2 = 0.8105 | 3.435
x2 = 0.9059 | 3.595

CC(C)CCCCCCCOC(=O)c1ccccc1C(=O)OCCCCCCCC(C)C + O
viscosity [mPa·s], 101 kPa
Details | 293.23 K | 298.26 K
x2 = 0.0005 | 122.8 | 87.79
x2 = 0.00265 | 122.3 | 87.38

CC(C)CCO + O
Details | viscosity [mPa·s]
293.15 K, 101.33 kPa, x1 = 0.0021 | 1.074
293.15 K, 101.33 kPa, x1 = 0.0042 | 1.123
293.15 K, 101.33 kPa, x1 = 0.0052 | 1.47
298.15 K, 101 kPa, x2 = 0.0019 | 3.738
298.15 K, 101 kPa, x2 = 0.0485 | 3.634
298.15 K, 101 kPa, x2 = 0.091 | 3.563
298.15 K, 101 kPa, x2 = 0.1325 | 3.518
298.15 K, 101 kPa, x2 = 0.1769 | 3.49
298.15 K, 101 kPa, x2 = 0.2065 | 3.482
298.15 K, 101 kPa, x2 = 0.2272 | 3.48
298.15 K, 101 kPa, x2 = 0.2538 | 3.486
298.15 K, 101 kPa, x2 = 0.3132 | 3.518
303.15 K, 101.33 kPa, x1 = 0.0021 | 0.851
303.15 K, 101.33 kPa, x1 = 0.0042 | 0.894
303.15 K, 101.33 kPa, x1 = 0.0052 | 0.907
313.15 K, 101.33 kPa, x1 = 0.0021 | 0.693
313.15 K, 101.33 kPa, x1 = 0.0042 | 0.721
323.15 K, 101.33 kPa, x1 = 0.0021 | 0.59
323.15 K, 101.33 kPa, x1 = 0.0042 | 0.617

C[C@@H](O)[C@H](N)C(=O)[O-].[Na+] + O
viscosity [mPa·s], 101 kPa
Details | x1 = 0.004484 | x1 = 0.008927 | x1 = 0.01333 | x1 = 0.0177 | x1 = 0.02202 | x1 = 0.02631 | x1 = 0.03478 | x1 = 0.0431 | x1 = 0.05127
293.15 K | 1.122 | 1.27 | 1.439 | 1.636 | 1.856 | 2.096 | 2.659 | 3.317 | 4.073
303.15 K | 0.9 | 1.012 | 1.138 | 1.279 | 1.425 | 1.594 | 1.993 | 2.414 | 2.986
313.15 K | 0.734 | 0.821 | 0.914 | 1.024 | 1.132 | 1.258 | 1.55 | 1.858 | 2.25
323.15 K | 0.612 | 0.681 | 0.755 | 0.84 | 0.925 | 1.021 | 1.242 | 1.482 | 1.767

[Ba+2].[Cl-].[Cl-] + O
viscosity [mPa·s], 101.3 kPa
Details | x1 = 0.0009 | x1 = 0.0018 | x1 = 0.00893 | x1 = 0.0125 | x1 = 0.0177 | x1 = 0.02116 | x1 = 0.02631
293.15 K | 1.016 | 1.027 | 1.123 | 1.174 | 1.261 | 1.325 | 1.43
298.15 K | 0.9041 | 0.9144 | 1.005 | 1.053 | 1.134 | 1.194 | 1.29
303.15 K | 0.8105 | 0.8204 | 0.9062 | 0.9513 | 1.027 | 1.082 | 1.171
308.15 K | 0.7315 | 0.7405 | 0.8219 | 0.8637 | 0.9352 | 0.9867 | 1.069
318.15 K | 0.6068 | 0.6141 | 0.688 | 0.725 | 0.788 | 0.8328 | 0.9047

c1ncncn1 + O
viscosity [mPa·s], 101 kPa
Details | x1 = 9.04e-05 | x1 = 0.0001902 | x1 = 0.0002698 | x1 = 0.0003238 | x1 = 0.0005432 | x1 = 0.0005796 | x1 = 0.0006388
293.15 K | 0.9241 | 0.9097 | 0.8902 | 0.8869 | 0.8968 | 0.8957 | 0.8944
298.15 K | 0.8187 | 0.8008 | 0.7878 | 0.7742 | 0.8122 | 0.8002 | 0.7864
303.15 K | 0.7307 | 0.7212 | 0.7162 | 0.71 | 0.7263 | 0.7135 | 0.6979
